Experimental data reported in patent publication US7462639B2, “Aminopyrazole derivatives” (Hoffmann-La Roche Inc., priority 2005, dated 2008).

These compounds were tested against T1, Aurora A kinase (Homo sapiens, UniProt O14965) (assay: IC50 determination for inhibitors of Aurora A (ELISA-type kinase assay)). Conditions: GST-Histone H3 substrate, mutant Aurora A kinase, 30 μM ATP, 40 minutes, read-out: IC50 Aurora A kinase inhibition.
T1 sequence (O14965 1-403): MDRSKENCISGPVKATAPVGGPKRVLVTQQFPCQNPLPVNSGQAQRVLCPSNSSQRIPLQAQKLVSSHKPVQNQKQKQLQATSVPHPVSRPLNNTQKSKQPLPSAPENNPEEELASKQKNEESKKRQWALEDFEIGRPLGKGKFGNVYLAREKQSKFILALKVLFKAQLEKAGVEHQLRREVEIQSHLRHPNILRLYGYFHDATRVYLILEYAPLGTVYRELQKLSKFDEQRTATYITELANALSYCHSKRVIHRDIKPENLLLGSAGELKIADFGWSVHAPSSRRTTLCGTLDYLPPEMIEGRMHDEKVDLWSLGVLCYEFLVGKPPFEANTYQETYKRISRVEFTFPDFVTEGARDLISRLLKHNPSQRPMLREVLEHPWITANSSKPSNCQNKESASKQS
Type: biochemical
Experimental: Aurora A is a serine threonine kinase involved in spindle assembly and chromosome segregation. The assay is a typically ELISA-type assay where substrate (GST-Histone H3) is coupled to the assay-plate and is phosphorylated by the kinase. Phosphorylation is detected by a mouse anti-Phosphopeptid mAb and an HRP-labeled anti-mouse pAb. The assay is validated for IC50-determination.
Kinase activities were measured by Enzyme-Linked Immunosorbent Assay (ELISA): Maxisorp 384-well plates (Nunc) were coated with recombinant fusion protein comprising residues 1-15 of HistoneH3 fused to the N-terminus of Glutathione-S-Transferase. Plates were then blocked with a solution of 1 mg/mL I-block (a highly purified form of casein, Tropix cat. no. T2015) in phosphate-buffered saline. Kinase reactions were carried out in the wells of the ELISA plate by combining an appropriate amount of mutant Aurora A kinase with test compound and 30 μM ATP. The reaction buffer was 10× Kinase Buffer (Cell Signaling cat. no. 9802) supplemented with 1 μg/mL I-block. Reactions were stopped after 40 minutes by addition of 25 mM EDTA. After washing, substrate phosphorylation was detected by addition of anti-phospho-Histone H3 (Ser 10) 6G3 mAb (Cell Signaling cat. no. 9706) and sheep anti-mouse pAb-HRP (Amersham cat# NA931V), followed by colorimetric development with TMB (3,3′,5,5′-tetramethylbenzidine from Kirkegaard & Perry Laboratories). After readout of the adsorbance, IC50 values were calculated using a non-linear curve fit (XLfit software (ID Business Solution Ltd., Guilford, Surrey, UK)).

Compared with `CCN1C(=O)C(C)(C)c2cc3[nH]c(-c4n[nH]cc4NC(=O)C(F)(F)F)nc3cc21` [Example A-5, N-[3-(5-Ethyl-7,7-dimethyl-6-oxo-1,5,6,7-tetrahydro-imidazo[4,5-f]indol-2-yl)-1H-pyrazol-4-yl]-2,2,2-trifluoro-acetamide], `CCN1C(=O)C(C)(C)c2cc3[nH]c(-c4n[nH]cc4NC(=O)CC(C)C)nc3cc21` [Example B-20, N-[3-(5-Ethyl-7,7-dimethyl-6-oxo-1,5,6,7-tetrahydro-imidazo[4,5-f]indol-2-yl)-1H-pyrazol-4-yl]-3-methyl-butyramide] is 14-fold lower in IC50: 29 nM for the first, 2 nM for the second. The second is the more potent here.

First: CCN1C(=O)C(C)(C)c2cc3[nH]c(-c4n[nH]cc4NC(=O)c4cnccn4)nc3cc21 [Example C-11, Pyrazine-2-carboxylic acid[3-(5-ethyl-7,7-dimethyl-6-oxo-1,5,6,7-tetrahydro-imidazo[4,5-f]indol-2-yl)-1H-pyrazol-4-yl]-amide]
Second: CCN(CC)C(=O)Nc1c[nH]nc1-c1nc2cc3c(cc2[nH]1)C(C)(C)C(=O)N3CC [Example E-8, 1,1-Diethyl-3-[3-(5-ethyl-7,7-dimethyl-6-oxo-1,5,6,7-tetrahydro-imidazo[4,5-f]indol-2-yl)-1H-pyrazol-4-yl]-urea]
The IC50 of the first is 3-fold higher: 3 nM for the first, 1 nM for the second. The second is the more potent here.

Compared with `CCN1C(=O)C(C)(C)c2cc3[nH]c(-c4n[nH]cc4NC(=O)OCc4ccccc4)nc3cc21` [Example E-5, [3-(5-Ethyl-7,7-dimethyl-6-oxo-1,5,6,7-tetrahydro-imidazo[4,5-f]indol-2-yl)-1H-pyrazol-4-yl]-carbamic acid benzyl ester], `CCN1C(=O)C(C)(C)c2cc3[nH]c(-c4n[nH]c(C)c4NCc4ccccc4)nc3cc21` [Example G-2, 2-(4-Benzylamino-5-methyl-1H-pyrazol-3-yl)-5-ethyl-7,7-dimethyl-5,7-dihydro-1H-imidazo[4,5-f]indol-6-one] is 1.7-fold higher in IC50: 19 nM for the first, 32 nM for the second.

Going from `CCN1C(=O)C(C)(C)c2cc3[nH]c(-c4n[nH]cc4NC(=O)N4CCC(OC)CC4)nc3cc21` [Example F-6] to `CCN1C(=O)C(C)(C)c2cc3nc(-c4n[nH]cc4NS(C)(=O)=O)[nH]c3cc21` [Example H-2, N-[3-(5-Ethyl-7,7-dimethyl-6-oxo-3,5,6,7-tetrahydro-imidazo[4,5-f]indol-2-yl)-1H-pyrazol-4-yl]-methanesulfonamide], the IC50 rises from 11 nM to 24 nM (2.2-fold). The first is the more potent here.

The compounds below were run on HCT 116 cells (assay: Viability assay in HCT 116 cells (CellTiter-Glo)). Conditions: 120 h; HCT 116 human colon carcinoma cells, 5 days incubation, ATP luminescence readout.
Type: cell-based
Experimental: A viability assay was performed using the CellTiter-Glo® Luminescent Cell Viability Assay (see Promega Corporation's Technical Bulletin No. 288, pp. 1-11 [revised 2/04] which is hereby incorporated by reference in its entirety). This assay is a homogeneous method of determining the number of viable cells in culture based on quantitation of the ATP present, an indicator of metabolically active cells. The assay is designed for use with multiwell formats, making it ideal for automated high-throughput screening (HTS), cell proliferation and cytotoxicity assays. The homogeneous assay procedure involves adding a single reagent (containing luciferase, luciferan substrate, and buffer) directly to cells cultured in serum-supplemented medium. Cell washing, removal of medium and multiple pipetting steps are not required. The system detects as few as 15 cells/well in a 384-well format in 10 minutes after adding reagent and mixing.
The homogeneous “add-mix-measure” format results in cell lysis and generation of a luminescent signal proportional to the amount of ATP present. The amount of ATP is directly proportional to the number of cells present in culture. The above-referenced assay generates a “glow-type” luminescent signal, produced by the luciferase reaction, which has a half-life generally greater than five hours, depending on cell type and medium used. The extended half-life eliminates the need to use reagent injectors and provides flexibility for continuous or batch mode processing of multiple plates. The unique homogeneous format avoids errors that may be introduced by other ATP measurement methods that require multiple steps.
HCT 116 cells (human colon carcinoma, ATCC-No. CCl-247) were cultivated in RPMI 1640 medium with GlutaMAX™ I (cell culture media that contains L-Alanyl-L-Glutamine [a stabilized a form/source of L-Glutamine] from Invitrogen, Cat-No. 61870-010), 2.5% Fetal Calf Serum (FCS, Sigma Cat-No. F4135 (FBS)); 100 Units/ml penicillin/100 μg/ml streptomycin (=Pen/Strep from Invitrogen Cat. No. 15140). For the assay the cells were seeded in 384 well plates, 1000 cells per well, in the same medium. The next day the test compounds were added in various concentrations ranging from 30 μM to 0.0015 μM (10 concentrations, 1:3 diluted). After 5 days the viability assay was done according to the instructions of the manufacturer. In brief: the cell-plate was equilibrated to room temperature for approximately 30 minutes and then reagent (containing luciferase, luciferan substrate, and buffer) was added. The contents were carefully mixed for 15 minutes to induce cell lysis. After 45 minutes the luminescent signal was measured in Victor 2, (scanning multiwell spectrophotometer, Wallac).
Medium: RPMI 1640 with cell culture media containing L-Alanyl-L-Glutamine [GlutaMAX™ I (Invitrogen, Cat-No. 61870)], 5% FCS (Sigma Cat.-No. F4135), Pen/Strep (Invitrogen, Cat No. 15140).
HCT116 (ATCC-No. CCl-247): 1000 cells in 60 μl per well of 384 well plate (Greiner 781098, μClear-plate white)
After seeding incubate plates 24 h at 37° C., 5% CO2
2nd. Day: Induction (Treatment with Compounds, 10 Concentrations):
In order to achieve a final concentration of 30 μM as highest concentration […] of 10 mM compound stock solution were added directly to […] media. Then step d) of the dilution procedure described below, was followed. […]

`CCN1C(=O)C(C)(C)c2cc3[nH]c(-c4n[nH]cc4NC(C)=O)nc3cc21` [Example A-1, N-[3-(5-Ethyl-7,7-dimethyl-6-oxo-1,5,6,7-tetrahydro-imidazo[4,5-f]indol-2-yl)-1H-pyrazol-4-yl]-acetamide] and `CCN1C(=O)C(C)(C)c2cc3[nH]c(-c4n[nH]cc4NC(=O)OC)nc3cc21` [Example E-6, [3-(5-Ethyl-7,7-dimethyl-6-oxo-1,5,6,7-tetrahydro-imidazo[4,5-f]indol-2-yl)-1H-pyrazol-4-yl]-carbamic acid methyl ester] are within 1.5-fold of each other in IC50: 311 nM for the first, 378 nM for the second.

`CCN1C(=O)C(C)(C)c2cc3[nH]c(-c4n[nH]cc4NC(=O)c4cccnc4)nc3cc21` [Example B-3, N-[3-(5-Ethyl-7,7-dimethyl-6-oxo-1,5,6,7-tetrahydro-imidazo[4,5-f]indol-2-yl)-1H-pyrazol-4-yl]-nicotinamide] and `CCN1C(=O)C(C)(C)c2cc3[nH]c(-c4n[nH]cc4NC(=O)N(C)C)nc3cc21` [Example E-10, 3-[3-(5-Ethyl-7,7-dimethyl-6-oxo-1,5,6,7-tetrahydro-imidazo[4,5-f]indol-2-yl)-1H-pyrazol-4-yl]-1,1-dimethyl-urea] are within 1.5-fold of each other in IC50: 57 nM for the first, 61 nM for the second.

First: CCN1C(=O)C(C)(C)c2cc3[nH]c(-c4n[nH]cc4NC(=O)COC)nc3cc21 [Example B-22, N-[3-(5-Ethyl-7,7-dimethyl-6-oxo-1,5,6,7-tetrahydro-imidazo[4,5-f]indol-2-yl)-1H-pyrazol-4-yl]-2-methoxy-acetamide]
Second: CCN(CCN(C)C)C(=O)Nc1c[nH]nc1-c1nc2cc3c(cc2[nH]1)C(C)(C)C(=O)N3CC [Example F-4, 1-(2-Dimethylamino-ethyl)-1-ethyl-3-[3-(5-ethyl-7,7-dimethyl-6-oxo-1,5,6,7-tetrahydro-imidazo[4,5-f]indol-2-yl)-1H-pyrazol-4-yl]-urea]
The IC50 of the first is 3.5-fold higher: 99 nM for the first, 28 nM for the second. The second is the more potent here.

Same assay, conditions: HCT 116 human colon carcinoma cells, 5 days incubation, ATP luminescence readout

`CCN1C(=O)C(C)(C)c2cc3[nH]c(-c4n[nH]cc4NC(=O)c4ccc5c(c4)OCCO5)nc3cc21` [Example C-13, 2,3-Dihydro-benzo[1,4]dioxine-6-carboxylic acid[3-(5-ethyl-7,7-dimethyl-6-oxo-1,5,6,7-tetrahydro-imidazo[4,5-f]indol-2-yl)-1H-pyrazol-4-yl]-amide] was tested, and the IC50 was 63 nM.
